Here are results for one molecule from patent publication US20260151389A1, “Use of Tetramethylpyrazine Nitrone Derivatives In The Treatment of Ischemic Stroke” (GUANGZHOU MAGPIE PHARMACEUTICALS CO., L.T.D., priority 2021, published 2026).

In the data set the test system is patients with acute ischemic stroke. The data set can be described thus: multicenter, randomized, double-blind, parallel clinical trial in acute ischemic stroke. The class given is in vivo, human. The conditions noted are these: for increase in percentage of patients with mRS 0-1 compared to the saline group: non-thrombolytic group, TBN 1400 mg iv twice a day for 7 days. The source says: The present invention adopts a multicenter, randomized, double-blind, parallel trial clinical research design. The patients with acute ischemic stroke included in the clinical trial-center as subjects (all signed informed consent forms) were divided into non-thrombolytic group and thrombolytic group. The non-thrombolytic group consists of the saline group and the TBN group. The thrombolytic group consists of the t-PA group and the combination group of TBN+t-PA.
Subjects of the tests: Patients diagnosed with acute ischemic stroke were selected by clinical trial centers based on the diagnostic criteria of “Chinese Guidelines for the Diagnosis and Treatment of Acute Ischemic Stroke (2018)”.
Administration method: TBN (1400 mg) is dissolved in a sodium chloride injection bag (specification: 100 mL) and administered intravenously for 30 minutes. Dose of t-PA: 0.9 mg/Kg/dose; usage: added to physiological saline, 10% of the dose is administered via injected intravenous injection immediately within 1-2 minutes, and the remaining 90% is administered via intravenous drop infusion within 60 minutes. t-PA is administered only once on the first day of acute ischemic stroke. The medication schedule of TBN: D1-D7 administered twice a day, with an interval of 12 hours, for 7 consecutive days.

Each structure is given as a SMILES string.

In the case of `Cc1nc(C)c(/C=[N+](\[O-])C(C)(C)C)nc1C` [TBN, cis-2-methyl-N-[(3,5,6-trimethylpyrazin-2-)methylene]2-propamine oxide], the safety and tolerability entry (clinical trial patients) is “good safety and tolerability”. Besides, the “increase in percentage of patients with mRS 0-1 compared to the saline group” value runs as follows: (30th day) 6.6 percentage points; (90th day) 3.3 percentage points.
